The structures appear in SMILES notation.

Consider four compounds from BindingDB's records for PubMed 37683364 (Institute of Respiratory Health).

RAC-alpha serine/threonine-protein kinase, sequence (P31749 whole entry): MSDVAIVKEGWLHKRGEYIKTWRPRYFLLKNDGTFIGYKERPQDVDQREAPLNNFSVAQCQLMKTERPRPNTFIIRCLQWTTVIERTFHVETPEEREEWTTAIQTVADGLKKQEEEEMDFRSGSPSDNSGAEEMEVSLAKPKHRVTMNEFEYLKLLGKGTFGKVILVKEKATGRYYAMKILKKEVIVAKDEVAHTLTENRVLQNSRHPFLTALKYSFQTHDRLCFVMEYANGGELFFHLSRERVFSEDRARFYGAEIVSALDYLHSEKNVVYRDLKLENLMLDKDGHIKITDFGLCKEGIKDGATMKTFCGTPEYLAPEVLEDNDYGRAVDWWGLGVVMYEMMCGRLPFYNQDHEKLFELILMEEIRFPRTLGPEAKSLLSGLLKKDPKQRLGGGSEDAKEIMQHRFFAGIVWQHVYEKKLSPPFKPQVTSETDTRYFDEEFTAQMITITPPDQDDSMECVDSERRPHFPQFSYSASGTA

The test has as its target RAC-alpha serine/threonine-protein kinase (Homo sapiens, UniProt P31749). Description: Inhibition of AKT phosphorylation in human OVCAR-8 cells assessed as reduction in pAKT level incubated for 24 hrs by Western blot analysis. Background: In western blotting, separated proteins are transferred to a membrane and probed.
As usually defined, the IC50 is the concentration that inhibits the measured activity by half. For the compound `c1cc(-c2ccnc3ccc(-c4cnc5[nH]ncc5c4)cc23)ccn1`, the IC50 came to 76 nM.

Take `O=C1NC(=O)C(Cc2ccc3nccc(-c4ccncc4)c3c2)S1` (centres undefined): the IC50 amounted to 40 nM.

On to `Nc1ncc(-c2ccc3nccc(-c4ccncc4)c3c2)cc1S(N)(=O)=O`, for which the IC50 was found to be 49 nM.

`O=S(=O)(Nc1cncc(-c2ccc3nccc(-c4ccncc4)c3c2)c1)c1ccccc1F`: the IC50 worked out at 7 nM.
